Holding throughout (format): cell-based
One assay concerns Escherichia coli. Briefly: Agar diffusion test, cytotoxic potential (ASTM F895). The conditions noted are these: antimicrobial composition in wells punched into inoculated agar, 78° F., 24 hours; FIG. 1. Here is the method: The instant example evaluated various antimicrobial compositions for cytotoxic potential. Briefly, ASTM […] is a test method useful for assessing the cytotoxic potential of new materials and formulations and as part of a quality control program for established medical devices and components. Qualitative results of the potency of various antimicrobial compositions were evaluated using this test method. […] The testing wells were then compared to one another based on the zone of inhibition of cell or spore growth created for each well. Petri dishes were place in an incubator at 78° F. for 24 hours. The zones of inhibition around each well were then compared and the best two antimicrobial compositions from this example were utilized in subsequent testing.
A general note: A growth-free zone around the sample is the usual read-out of agar diffusion tests.

Another assay deals with Staphylococcus aureus. The assay is described as follows: Antimicrobial activity under dynamic contact conditions (ASTM E2149-13a), dynamic shaker test, compositions comprising a polymer. The conditions noted are these: FIG. 3. Here is the method:
The instant example evaluated various antifoulant compositions for antimicrobial activity under dynamic contact conditions. Briefly, ASTM E2149-13a is a test standard for determining antimicrobial activity of antimicrobial compositions under dynamic contact conditions. The 2×2 inch antifoulant composition samples from Example 1 and Example 2 were placed in sterilized 500 mL flasks with 100 mL of distilled water.
For antifoulant compositions comprising a polymer, Staphylococcus aureus (gram-positive bacteria) were added to each flask at 3×10^6 VC/mL. For antifoulant compositions comprising a composite material, Escherichia coli (gram-negative bacteria) were added to each flask at approximately 1×10^6 cells/mL. Three samples (0.1 mL each) were taken immediately from each flask and spread on TSA plates. The flasks were incubated in a 37° C. shaking incubator at 200 rpm. Three samples (0.1 mL each) were removed and plated at 1 hour intervals for three hours. Plates were left for growth at 25° C. for 60 hours. Colonies were counted using Sphere Flash and the average VC/mL or colony forming units (CFU) were documented.

The test system of assay [1] is gram-positive and gram-negative bacteria. The assay is described as follows: Laboratory testing, overall comparison of antimicrobials. As to conditions: summary. The text has this:
E. coli is a gram-negative bacteria that has a more complicated cell wall structure which makes this bacteria more difficult to penetrate and mitigate. In contrast, S. aureus is a gram positive bacteria and is naturally more susceptible to antimicrobials and, thus, may be easier to control.

As to `[O]=[Zn]` [zinc oxide], the “inhibition of bacterial growth per visible zone of inhibition around the sample” value with Escherichia coli is “demonstrated efficacy in inhibiting bacterial growth”.

As to zinc pyrithione, the “inhibition of bacterial growth per visible zone of inhibition around the sample” value in the assay on Escherichia coli is listed as “demonstrated efficacy in inhibiting bacterial growth”. Further, in the assay on Staphylococcus aureus (S. aureus, dynamic fluid conditions, antifoulant composition comprising a polymer (HDPE)), the antibacterial efficacy is 99.9%. Further, the “relative antimicrobial efficacy among tested antimicrobials” value with Staphylococcus aureus (antimicrobials in antifoulant compositions comprising a polymer (HDPE), dynamic flow conditions) is listed as “most efficacious”. The “efficacies and performance with both gram-positive and gram-negative bacteria” value in assay [1] was “highest efficacies and performance”.
